The subject of the test is SARS-CoV-2. In words: microbe, parasite or virus in culture. To be noted: read-out: EC50, μM (Hela). The format is cell-based.
Setting [1] is: Severe acute respiratory syndrome coronavirus 2, HeLa-ACE2 cells infected with SARS-CoV-2, 24 h, immunofluorescence of infected cells.

Where two headings read alike, the source gives them in different places. Bounds are passed on as bounds.

Take `O=C[C@H](C[C@@H]1CCNC1=O)NC(=O)[C@H](CC1CC1)NC(=O)c1cc(-c2ccccc2F)on1` [Compound 125, N-((S)-3-cyclopropyl-1-oxo-1-(((S)-1-oxo-3-((S)-2-oxopyrrolidin-3-yl)propan-2-yl)amino)propan-2-yl)-5-(2-fluorophenyl)isoxazole-3-carboxamide]: under setting [1], the EC50 lay within 0.05 to 0.2 µM.

Take `CC(C)C[C@H](NC(=O)c1cc(-c2ccccc2F)on1)C(=O)N[C@H](C=O)C[C@@H]1CCCNC1=O` [Compound 126, 5-(2-fluorophenyl)-N-((S)-4-methyl-1-oxo-1-(((S)-1-oxo-3-((S)-2-oxopiperidin-3-yl)propan-2-yl)amino)pentan-2-yl)isoxazole-3-carboxamide]: the EC50 under setting [1] was 0.05 to 0.2 µM.

For `CC(C)C[C@H](NC(=O)c1cc(-c2ccccn2)on1)C(=O)N[C@H](C=O)C[C@@H]1CCCNC1=O` [Compound 127, N-((S)-4-methyl-1-oxo-1-(((S)-1-oxo-3-((S)-2-oxopiperidin-3-yl)propan-2-yl)amino)pentan-2-yl)-5-(pyridin-2-yl)isoxazole-3-carboxamide], the EC50 under setting [1] was 0.5 to 1 µM. On to `CC(C)C[C@H](NC(=O)c1cc(-c2ccccn2)on1)C(=O)N[C@H](C=O)C[C@@H]1CCNC1=O` [Compound 128, N-((S)-4-methyl-1-oxo-1-(((S)-1-oxo-3-((S)-2-oxopyrrolidin-3-yl)propan-2-yl)amino)pentan-2-yl)-5-(pyridin-2-yl)isoxazole-3-carboxamide], for which the EC50 under setting [1] is > 1 µM.

Turning to `COc1cccc2[nH]c(C(=O)N[C@@H](CC(C)C)C(=O)N[C@@H](C[C@@H]3CCCNC3=O)C(=O)CO)cc12` [Compound 129, N-((S)-1-(((S)-4-hydroxy-3-oxo-1-((S)-2-oxopiperidin-3-yl)butan-2-yl)amino)-4-methyl-1-oxopentan-2-yl)-4-methoxy-1H-indole-2-carboxamide], the EC50 under setting [1] was 0.5 to 1 µM. Turning to `CC1(C)[C@@H]2[C@@H](C(=O)N[C@H](C#N)C[C@@H]3CCCNC3=O)N(C(=O)c3ccnc(C(F)(F)F)c3)C[C@@H]21` [Compound 130, (1R,2S,5S)-N-((S)-1-cyano-2-((S)-2-oxopiperidin-3-yl)ethyl)-6,6-dimethyl-3-(2-(trifluoromethyl)isonicotinoyl)-3-azabicyclo[3.1.0]hexane-2-carboxamide], under setting [1], the EC50 is > 1 µM. For the compound `CC(=O)NC(CC(C)C(F)(F)F)C(=O)N1C[C@H]2[C@@H]([C@H]1C(=O)N[C@H](C#N)C[C@@H]1CCCNC1=O)C2(C)C` (stereo partly drawn) [Compound 131, (1R,2S,5S)-3-(2-acetamido-5,5,5-trifluoro-4-methylpentanoyl)-N-((S)-1-cyano-2-((S)-2-oxopiperidin-3-yl)ethyl)-6,6-dimethyl-3-azabicyclo[3.1.0]hexane-2-carboxamide], the EC50 under setting [1] is 0.5 to 1 µM. Turning to `CC(C)(C)[C@H](NC(=O)C(F)(F)F)C(=O)N1C[C@H]2[C@@H]([C@H]1C(=O)N[C@H](C=O)C[C@@H]1CCCNC1=O)C2(C)C` [Compound 132, (1R,2S,5S)-3-((S)-3,3-dimethyl-2-(2,2,2-trifluoroacetamido)butanoyl)-6,6-dimethyl-N-((S)-1-oxo-3-((S)-2-oxopiperidin-3-yl)propan-2-yl)-3-azabicyclo[3.1.0]hexane-2-carboxamide], the concentration giving a half-maximal response (EC50) (Severe acute respiratory syndrome coronavirus 2, HeLa-ACE2, 24 h) was 0.5 to 1 µM. In the case of `CC(C)(C)C[C@H](NC(=O)C(=O)Nc1ccccc1C(F)(F)F)C(=O)N[C@H](C[C@@H]1CCCNC1=O)C(=O)CO` [Compound 133, N^1-((S)-1-(((R)-4-hydroxy-3-oxo-1-((S)-2-oxopiperidin-3-yl)butan-2-yl)amino)-4,4-dimethyl-1-oxopentan-2-yl)-N^2-(2-(trifluoromethyl)phenyl)oxalamide], under setting [1], the EC50 was > 1 µM. With `CC(C)C[C@@H](O)C(=O)N[C@@H](Cc1cccc(F)c1)C(=O)N[C@@H](C[C@@H]1CCCNC1=O)C(=O)CO` [Compound 134, (R)-N-((S)-3-(3-fluorophenyl)-1-(((S)-4-hydroxy-3-oxo-1-((S)-2-oxopiperidin-3-yl)butan-2-yl)amino)-1-oxopropan-2-yl)-2-hydroxy-4-methylpentanamide], the EC50 under setting [1] was > 1 µM. The same measure, in the same setting: to `CC(C)C[C@H](NC(=O)C(=O)NC12CCC(F)(CC1)CC2)C(=O)N[C@@H](C[C@@H]1CCCNC1=O)C(=O)CO` [Compound 135, N^1-(4-fluorobicyclo[2.2.2]octan-1-yl)-N^2-((S)-1-(((S)-4-hydroxy-3-oxo-1-((S)-2-oxopiperidin-3-yl)butan-2-yl)amino)-4-methyl-1-oxopentan-2-yl)oxalamide] belongs > 1 µM; to `CC(C)CCC(=O)N[C@@H](CC(C)(C)C)C(=O)N[C@H](C#N)C[C@@H]1CCCNC1=O` [Compound 136, (S)-N-((S)-1-cyano-2-((S)-2-oxopiperidin-3-yl)ethyl)-4,4-dimethyl-2-(4-methylpentanamido)pentanamide], > 1 µM; to `CCCCCCCCCCCCCCC(=O)OCC(=O)[C@H](C[C@@H]1CCNC1=O)NC(=O)[C@H](CC(C)C)NC(=O)c1cc2c(OC)cccc2[nH]1` [Compound 137, (S)-3-((S)-2-(4-methoxy-1H-indole-2-carboxamido)-4-methylpentanamido)-2-oxo-4-((S)-2-oxopyrrolidin-3-yl)butyl pentadecanoate], 0.2 to 0.5 µM. With `CC(C)C[C@H](NC(=O)C(=O)Nc1ccccc1F)C(=O)N[C@@H](C[C@@H]1CCCNC1=O)C(=O)COC(=O)c1ccccc1C#N` [Compound 138, (S)-3-((S)-2-(2-((2-fluorophenyl)amino)-2-oxoacetamido)-4-methylpentanamido)-2-oxo-4-((S)-2-oxopiperidin-3-yl)butyl 2-cyanobenzoate], the EC50 under setting [1] lay in the range of 0.05 to 0.2 µM.

The term EC50 denotes the midpoint of the concentration-response curve.

For the origin of these results see patent US20230033285A1, “Protease Inhibitors for Treatment of Coronavirus Infections” (The Scripps Research Institute, priority 2021, published 2023).
